Like-named read-outs stand apart in the source and are kept apart here.
Key:
[1] = biological target: T1, VCAM-1 binding to α4β7-negative Th memory cells (Homo sapiens, UniProt P05556+P13612); experiment: VCAM-1 competition / receptor occupancy assay in human whole blood, α4β7-negative Th memory cells; assay type: cell-based
T1 construct: endogenous in cells
Procedure: Analyte Competition Assay in CD4+ Integrin α4+β7-Lo Memory T Cells
Receptor occupancy in primary cells was determined by measuring the amount of biotinylated human recombinant MAdCAM-1-FC or human recombinant VCAM-1-Fc bound to selected cell populations using flow cytometry. Human recombinant MAdCAM-1-FC or human recombinant VCAM-1-FC (R&D systems) were biotinylated using commercially available reagents and protocol (Pierce).
Whole blood was collected from human donors in sodium heparin tubes. A volume of 100 microL of blood was incubated with compound and 4 mM MnCL2 for 1 hour at room temperature. Cells were washed twice with 1 mL of 1X DPBS calcium magnesium free (CMF) (ThermoFisher Scientific) and resuspended in 100 microL of DPBS CMF.
Biotinylated human recombinant MAdCAM-1-Fc or VCAM-1-Fc were added at saturating concentration and incubated at room temperature for 1 hour. A volume of 2 mL of 1X BD FACS Lyse (BD Biosciences) was then added and the mixture was incubated for 8-12 minutes at room temperature in the dark to lyse red blood cells. Cells were washed with 1 mL stain buffer-FBS (BD Biosciences) and resuspended in 100 μl stain Buffer-FBS (BD Biosciences) containing 4 mM MnCl2. Biotinylated-rhMAdCAM-1 was applied at a saturating concentration of 1200 ng/mL to compete with test article binding and incubated at room temperature for 1 hour. Cells were then washed with 1 mL stain buffer-FBS and resuspended in […] stain buffer-FBS. The cells were incubated in the dark for 30 minutes at room temperature with 1 ul Streptavidin APC (Biolegend 0.2 mg/ml) and a panel of antibodies for the detection of memory T helper a4b7-positive cells subset. And amount of 5.0 ul each of the following antibodies were used; CD45 FITC (BioLegend 200 ug/ml), CD29 APC Cy7 (BioLegend 100 ug/ml), Integrin beta7 PE, (BioLegend concentration 50 μg/mL), CD49d V421 (BioLegend 50 μg/mL), CD3 V510 (BioLegend 30 μg/mL), CD4 PECy7 (BioLegend 100 μg/mL), CD45RO PerCP, BioLegend 200 μg/mL). The cells were then washed with stain-buffer-FBS and resuspended in 150 microL stain buffer-FBS for acquisition on the flow cytometer (BD FACSCanto™ flow cytometer and BDFACSDiva™ software). FACS data was acquire by electronic gating on the basis of forward versus side scatter, The cytometer was set to collect 20,000 events in each tube. Cell population were determined using the following markers, CD45+, CD3+, CD4+, CD45RO+, CD49d+, integrin b7, biotinylated ligands.
Compound receptor occupancy was defined as the decrease in the number of integrin β7+ or integrin β7-lo cells binding biotinylated rhMAdCAM-1 or rhVCAM-1, respectively.
(§1) Receptor occupancy was calculated with the following equation: 100−((% ligand-positive cells with compound/% ligand-positive cells DMSO)*100) In Vivo T Lymphocyte Trafficking Analysis in Mouse Model of Colitis

[2] = system: α4β7+ T helper memory lymphocytes in mesenteric lymph nodes; experiment: In vivo T lymphocyte trafficking analysis in DSS mouse model of colitis; settings: DSS-treated mice
Procedure: as §1
Animal care: The animal care facility employed is accredited by the Canadian Council on Animal Care (CCAC). This study was approved by a certified Animal Care Committee and complied with CACC standards and regulations governing the use of animals for research. The animals were housed under standardized environmental conditions. A standard certified commercial rodent diet was provided ad libitum. Tap water was provided ad libitum at all times.
Dextran sulfate sodium (DSS) was administered to C57Bl/6 female mice for five days through addition to their drinking water at 3%. Body weight and disease activity index (“DAI”) were measured on Day 5 in order to distribute DSS-treated animals in uniform groups prior to dosing. DAI was scored based on the severity three specific symptoms associated with colitis: 1—blood in stool (negative hemoccult, positive hemoccult, blood traces in stool visible, rectal bleeding); 2—stool consistency (normal, soft but still formed, very soft, diarrhea); 3—body weight loss. […]
Statistical analysis was performed using GraphPad Prism. Differences among groups were evaluated by two-way ANOVA, with a 95% confidence interval.

[3] = human whole blood, inhibition of VCAM binding to α4β7-negative Th memory cells, FACS, read-out: VCAM FACS α4+β7− Th mem

T1 sequence (P13612 34-1032): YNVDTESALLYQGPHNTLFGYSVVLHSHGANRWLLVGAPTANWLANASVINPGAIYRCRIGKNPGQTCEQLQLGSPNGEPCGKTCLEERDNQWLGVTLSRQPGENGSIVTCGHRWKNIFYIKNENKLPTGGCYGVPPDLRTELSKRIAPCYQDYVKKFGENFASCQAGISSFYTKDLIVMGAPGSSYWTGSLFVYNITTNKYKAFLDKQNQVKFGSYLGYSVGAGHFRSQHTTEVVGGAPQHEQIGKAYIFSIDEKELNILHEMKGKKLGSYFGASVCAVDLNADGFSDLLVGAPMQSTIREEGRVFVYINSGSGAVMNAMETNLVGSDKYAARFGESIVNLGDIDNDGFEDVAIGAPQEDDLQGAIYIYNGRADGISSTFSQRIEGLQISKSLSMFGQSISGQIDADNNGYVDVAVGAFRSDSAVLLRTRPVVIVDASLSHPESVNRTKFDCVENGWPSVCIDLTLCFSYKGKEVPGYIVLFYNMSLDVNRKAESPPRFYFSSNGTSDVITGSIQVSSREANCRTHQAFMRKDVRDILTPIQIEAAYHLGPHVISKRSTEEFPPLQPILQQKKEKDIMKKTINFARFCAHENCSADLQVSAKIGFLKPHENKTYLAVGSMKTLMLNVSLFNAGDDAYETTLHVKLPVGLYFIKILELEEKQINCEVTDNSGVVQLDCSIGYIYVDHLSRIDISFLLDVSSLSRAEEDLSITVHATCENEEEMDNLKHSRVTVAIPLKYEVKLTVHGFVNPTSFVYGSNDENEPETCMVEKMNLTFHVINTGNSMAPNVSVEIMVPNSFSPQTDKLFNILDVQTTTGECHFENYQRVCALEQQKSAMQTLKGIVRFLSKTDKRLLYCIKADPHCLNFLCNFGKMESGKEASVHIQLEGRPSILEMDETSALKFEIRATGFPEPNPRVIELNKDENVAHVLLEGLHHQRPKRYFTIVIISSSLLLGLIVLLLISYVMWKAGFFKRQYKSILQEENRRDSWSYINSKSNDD
T1 sequence (P05556 21-798): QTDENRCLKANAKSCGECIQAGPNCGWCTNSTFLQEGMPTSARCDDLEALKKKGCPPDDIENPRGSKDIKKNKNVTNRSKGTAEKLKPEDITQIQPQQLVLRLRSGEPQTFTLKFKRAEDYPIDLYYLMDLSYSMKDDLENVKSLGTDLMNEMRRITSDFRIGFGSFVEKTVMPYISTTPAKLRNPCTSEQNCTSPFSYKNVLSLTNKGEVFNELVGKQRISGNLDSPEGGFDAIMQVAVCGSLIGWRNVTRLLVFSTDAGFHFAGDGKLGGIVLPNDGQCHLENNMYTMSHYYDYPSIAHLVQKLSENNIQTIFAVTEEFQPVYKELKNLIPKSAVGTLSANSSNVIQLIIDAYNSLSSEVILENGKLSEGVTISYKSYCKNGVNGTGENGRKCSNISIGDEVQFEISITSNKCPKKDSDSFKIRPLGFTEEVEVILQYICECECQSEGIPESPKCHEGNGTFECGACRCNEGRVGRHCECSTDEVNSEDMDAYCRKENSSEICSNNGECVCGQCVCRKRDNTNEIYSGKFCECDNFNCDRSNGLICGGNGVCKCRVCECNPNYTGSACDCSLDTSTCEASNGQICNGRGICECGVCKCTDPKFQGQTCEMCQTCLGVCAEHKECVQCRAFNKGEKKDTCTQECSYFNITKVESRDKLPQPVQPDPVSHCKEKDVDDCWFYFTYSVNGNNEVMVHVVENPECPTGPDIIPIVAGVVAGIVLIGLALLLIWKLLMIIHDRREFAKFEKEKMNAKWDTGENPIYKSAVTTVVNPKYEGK

In the case of `CC(C)C[C@@H]1NC(=O)c2ccc(-c3ccc(N4CCN(C(=O)c5ccccc5-c5ccccc5C(=O)N5CCN(c6ccc(-c7ccc8cc7CNC(=O)[C@@H]7CCCN7[C@H](C(=O)NC(C)(C)C)[C@H](C)NC(=O)[C@H]([C@@H](C)O)NC(=O)[C@H](CC(=O)O)NC(=O)[C@H](CC(C)C)NC8=O)cc6)CC5)CC4)cc3)c(c2)CNC(=O)[C@@H]2CCCN2[C@H](C(=O)NC(C)(C)C)[C@H](C)NC(=O)[C@H]([C@@H](C)O)NC(=O)[C@H](CC(=O)O)NC1=O` [Compound 517], the IC50 [1, 3] is reported as 0.607 µM, the “reduction of the number of α4β7+ positive lymphocytes in mesenteric lymph nodes” value ([2]; 80 mg/kg orally daily days 6 to 9) is reported as 60% and the “reduction in α4β7+ T helper memory lymphocytes in mesenteric lymph nodes, dose dependence” value ([2]; FIG. 9) is reported as “dose-dependent reduction”.
For `CC(C)C[C@@H]1NC(=O)c2ccc(-c3ccc(N4CCN(CCC(=O)N5CCN(c6ccc(-c7ccc8cc7CNC(=O)[C@@H]7CCCN7[C@H](C(=O)NC(C)(C)C)[C@H](C)NC(=O)[C@H]([C@@H](C)O)NC(=O)[C@H](CC(=O)O)NC(=O)[C@H](CC(C)C)NC8=O)cc6)CC5)CC4)cc3)c(c2)CNC(=O)[C@@H]2CCCN2[C@H](C(=O)NC(C)(C)C)[C@H](C)NC(=O)[C@H]([C@@H](C)O)NC(=O)[C@H](CC(=O)O)NC1=O` [Compound 482], the IC50 [1, 3] was at least 4 µM.
In the case of `CC(C)C[C@@H]1NC(=O)c2ccc(-c3ccc(N4CCN(C(=O)CCOCCOCCOCCOCCOCCOCCOCCOCCOCCOCCC(=O)N5CCN(c6ccc(-c7ccc8cc7CNC(=O)[C@@H]7CCCN7[C@H](C(=O)NC(C)(C)C)[C@H](C)NC(=O)[C@H]([C@@H](C)O)NC(=O)[C@H](CC(=O)O)NC(=O)[C@H](CC(C)C)NC8=O)cc6)CC5)CC4)cc3)c(c2)CNC(=O)[C@@H]2CCCN2[C@H](C(=O)NC(C)(C)C)[C@H](C)NC(=O)[C@H]([C@@H](C)O)NC(=O)[C@H](CC(=O)O)NC1=O` [Compound 511], the IC50 [1, 3] is reported as 20 µM.
For `CC(C)C[C@@H]1NC(=O)C[C@H](CCCCN)N(C)C(=O)[C@H](CCCCNC(=O)CCCCCCCCC(=O)NCCCC[C@@H]2NC(=O)[C@@H]3CCCN3[C@H](C(=O)NC(C)(C)C)[C@H](C)NC(=O)[C@H]([C@@H](C)O)NC(=O)[C@H](CC(=O)O)NC(=O)[C@H](CC(C)C)NC(=O)C[C@H](CCCCN)N(C)C2=O)NC(=O)[C@@H]2CCCN2[C@H](C(=O)NC(C)(C)C)[C@H](C)NC(=O)[C@H]([C@@H](C)O)NC(=O)[C@H](CC(=O)O)NC1=O` [Compound 530], the IC50 [1, 3] was over 4 µM and the IC50 ([1]; whole blood from a single donor, FIG. 11, up to 4000 nM, read-out: IC50, VCAM binding) was at least 0.6 µM.

Source: patent US11713338B2, “Cyclic peptides multimers targeting α-4-β-7 integrin” (priority 2016, dated 2023)
